# Data reported in publication PMC11864979, “First-in-class ultralong-target-residence-time p38α inhibitors as a mitosis-targeted therapy for colorectal cancer” (Nature Cancer, 2025).
# Like-named read-outs stand apart in the source and are kept apart here.
# Legend:
# Experiment in all cases: selectivity profiling in a panel of 340 wild-type kinases (Reaction Biology Europe)
# Type in all cases: binding
# [1] = molecular target: T1, 340 wild-type kinases (Homo sapiens, UniProt P45984)
# T1 construct: purchased Reaction Biology Europe
# [2] = molecular target: T2, 340 wild-type kinases (Homo sapiens, UniProt P49840)
# T2 construct: purchased Reaction Biology Europe
# [3] = molecular target: T3, 340 wild-type kinases (Homo sapiens, UniProt P34947)
# T3 construct: purchased Reaction Biology Europe
# [4] = molecular target: T4, 340 wild-type kinases (Homo sapiens, UniProt Q02763)
# T4 construct: purchased Reaction Biology Europe
# [5] = molecular target: T5, 340 wild-type kinases (Homo sapiens, UniProt Q14680)
# T5 construct: purchased Reaction Biology Europe
# [6] = molecular target: T6, 340 wild-type kinases (Homo sapiens, UniProt P53779)
# T6 construct: purchased Reaction Biology Europe
# [7] = molecular target: T7, 340 wild-type kinases (Homo sapiens, UniProt Q5S007)
# T7 construct: purchased Reaction Biology Europe
# [8] = molecular target: T8, 340 wild-type kinases (Homo sapiens, UniProt Q9H2G2)
# T8 construct: purchased Reaction Biology Europe
# [9] = molecular target: T9, 340 wild-type kinases (Homo sapiens, UniProt P22607)
# T9 construct: purchased Reaction Biology Europe
# [10] = molecular target: T10, 340 wild-type kinases (Homo sapiens, UniProt Q6IQ55)
# T10 construct: purchased Reaction Biology Europe
# [11] = molecular target: T11, 340 wild-type kinases (Homo sapiens, UniProt P50613)
# T11 construct: purchased Reaction Biology Europe
# [12] = molecular target: T12, 340 wild-type kinases (Homo sapiens, UniProt Q13627)
# T12 construct: purchased Reaction Biology Europe
# [13] = molecular target: T13, 340 wild-type kinases (Homo sapiens, UniProt Q04759)
# T13 construct: purchased Reaction Biology Europe
# [14] = molecular target: T14, 340 wild-type kinases (Homo sapiens, UniProt Q9H093)
# T14 construct: purchased Reaction Biology Europe
# T14 sequence (Q9H093 1-628): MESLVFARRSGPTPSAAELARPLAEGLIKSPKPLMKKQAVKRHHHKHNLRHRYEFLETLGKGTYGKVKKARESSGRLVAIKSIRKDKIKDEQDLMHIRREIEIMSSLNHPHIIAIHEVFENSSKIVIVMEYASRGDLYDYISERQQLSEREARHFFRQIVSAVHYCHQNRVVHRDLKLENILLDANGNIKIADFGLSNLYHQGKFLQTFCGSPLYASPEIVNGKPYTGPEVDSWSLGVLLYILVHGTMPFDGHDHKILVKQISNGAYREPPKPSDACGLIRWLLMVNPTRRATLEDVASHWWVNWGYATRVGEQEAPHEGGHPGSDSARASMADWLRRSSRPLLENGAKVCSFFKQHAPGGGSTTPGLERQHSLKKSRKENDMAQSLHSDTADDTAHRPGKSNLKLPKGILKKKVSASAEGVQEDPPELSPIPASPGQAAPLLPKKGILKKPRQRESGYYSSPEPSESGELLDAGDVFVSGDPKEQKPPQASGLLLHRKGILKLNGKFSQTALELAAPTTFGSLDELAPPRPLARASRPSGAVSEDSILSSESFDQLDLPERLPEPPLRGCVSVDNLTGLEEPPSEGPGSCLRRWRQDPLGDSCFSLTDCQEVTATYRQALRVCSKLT
# [15] = molecular target: T15, 340 wild-type kinases (Homo sapiens, UniProt P10721)
# T15 construct: purchased Reaction Biology Europe
# [16] = molecular target: T16, 340 wild-type kinases (Homo sapiens, UniProt P22455)
# T16 construct: purchased Reaction Biology Europe
# [17] = molecular target: T17, 340 wild-type kinases (Homo sapiens, UniProt Q13164)
# T17 construct: purchased Reaction Biology Europe
# T6 sequence (P53779 whole entry): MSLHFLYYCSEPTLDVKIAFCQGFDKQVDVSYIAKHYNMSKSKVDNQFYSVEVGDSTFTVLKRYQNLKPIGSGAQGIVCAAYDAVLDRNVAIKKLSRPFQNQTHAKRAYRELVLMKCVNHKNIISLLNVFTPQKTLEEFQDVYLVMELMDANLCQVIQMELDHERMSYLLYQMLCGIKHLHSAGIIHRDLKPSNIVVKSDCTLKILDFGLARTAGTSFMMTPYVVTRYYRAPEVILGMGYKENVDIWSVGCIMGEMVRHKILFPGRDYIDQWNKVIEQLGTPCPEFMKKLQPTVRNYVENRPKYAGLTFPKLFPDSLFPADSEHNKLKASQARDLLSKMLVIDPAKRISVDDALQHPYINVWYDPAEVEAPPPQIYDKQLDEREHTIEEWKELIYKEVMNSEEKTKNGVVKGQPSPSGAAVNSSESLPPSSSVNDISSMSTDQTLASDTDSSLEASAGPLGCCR
# T8 sequence (Q9H2G2 whole entry): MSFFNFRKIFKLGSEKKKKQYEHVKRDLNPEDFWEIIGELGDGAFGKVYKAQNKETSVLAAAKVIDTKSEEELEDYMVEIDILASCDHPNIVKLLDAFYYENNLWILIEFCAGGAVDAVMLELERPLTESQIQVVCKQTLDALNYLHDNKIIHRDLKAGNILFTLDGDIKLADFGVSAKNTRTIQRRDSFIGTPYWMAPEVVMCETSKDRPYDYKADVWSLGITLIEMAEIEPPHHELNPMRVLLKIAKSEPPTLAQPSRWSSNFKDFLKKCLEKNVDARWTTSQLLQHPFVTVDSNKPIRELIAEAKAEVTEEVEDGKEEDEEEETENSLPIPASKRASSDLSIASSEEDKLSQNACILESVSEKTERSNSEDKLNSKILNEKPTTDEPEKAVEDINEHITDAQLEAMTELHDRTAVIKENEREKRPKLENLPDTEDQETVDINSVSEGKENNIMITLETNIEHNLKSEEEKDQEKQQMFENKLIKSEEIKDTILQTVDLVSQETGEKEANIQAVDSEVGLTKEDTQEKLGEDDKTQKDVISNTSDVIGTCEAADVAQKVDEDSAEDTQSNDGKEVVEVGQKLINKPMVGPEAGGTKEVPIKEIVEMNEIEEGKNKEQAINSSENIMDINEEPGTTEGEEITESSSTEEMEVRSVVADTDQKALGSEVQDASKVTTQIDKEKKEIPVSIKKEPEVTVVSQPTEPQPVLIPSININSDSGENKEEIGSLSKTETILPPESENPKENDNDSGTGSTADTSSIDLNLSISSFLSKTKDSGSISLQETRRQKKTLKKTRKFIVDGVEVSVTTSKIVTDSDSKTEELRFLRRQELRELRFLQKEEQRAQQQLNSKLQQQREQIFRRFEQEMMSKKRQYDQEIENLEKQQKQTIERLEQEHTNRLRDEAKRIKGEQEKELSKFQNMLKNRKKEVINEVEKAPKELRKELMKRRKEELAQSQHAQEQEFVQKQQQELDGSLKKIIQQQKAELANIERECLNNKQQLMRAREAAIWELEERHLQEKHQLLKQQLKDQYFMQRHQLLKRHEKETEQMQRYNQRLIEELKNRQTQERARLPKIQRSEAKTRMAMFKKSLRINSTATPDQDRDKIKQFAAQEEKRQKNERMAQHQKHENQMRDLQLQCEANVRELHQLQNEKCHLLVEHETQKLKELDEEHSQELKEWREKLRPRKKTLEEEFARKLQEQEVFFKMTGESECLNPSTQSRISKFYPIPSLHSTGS
# T15 sequence (P10721 26-976): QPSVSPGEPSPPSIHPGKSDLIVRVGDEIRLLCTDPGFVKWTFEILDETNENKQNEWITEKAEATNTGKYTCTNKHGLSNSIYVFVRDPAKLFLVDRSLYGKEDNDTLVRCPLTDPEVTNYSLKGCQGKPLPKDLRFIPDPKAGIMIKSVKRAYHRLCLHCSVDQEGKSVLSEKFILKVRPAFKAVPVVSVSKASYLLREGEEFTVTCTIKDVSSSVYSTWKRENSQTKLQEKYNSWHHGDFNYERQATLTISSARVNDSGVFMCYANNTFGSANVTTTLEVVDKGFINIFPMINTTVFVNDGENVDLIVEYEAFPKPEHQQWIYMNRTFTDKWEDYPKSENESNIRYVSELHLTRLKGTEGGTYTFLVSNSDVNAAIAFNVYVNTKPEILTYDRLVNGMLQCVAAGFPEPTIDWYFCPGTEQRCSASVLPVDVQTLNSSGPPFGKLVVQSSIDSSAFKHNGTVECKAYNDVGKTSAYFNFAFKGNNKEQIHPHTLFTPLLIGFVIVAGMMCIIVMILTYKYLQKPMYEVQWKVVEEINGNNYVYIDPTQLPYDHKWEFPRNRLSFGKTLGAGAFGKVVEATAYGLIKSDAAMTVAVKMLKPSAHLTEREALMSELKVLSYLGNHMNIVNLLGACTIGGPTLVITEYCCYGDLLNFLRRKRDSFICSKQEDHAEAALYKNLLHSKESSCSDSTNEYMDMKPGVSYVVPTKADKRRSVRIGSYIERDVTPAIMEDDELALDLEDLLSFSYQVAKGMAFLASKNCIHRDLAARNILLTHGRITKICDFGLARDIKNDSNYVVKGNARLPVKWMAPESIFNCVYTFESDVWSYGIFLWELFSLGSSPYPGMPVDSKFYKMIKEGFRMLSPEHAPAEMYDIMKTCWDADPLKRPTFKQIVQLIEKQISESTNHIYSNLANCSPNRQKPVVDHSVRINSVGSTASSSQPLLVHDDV
# T4 sequence (Q02763 23-1124): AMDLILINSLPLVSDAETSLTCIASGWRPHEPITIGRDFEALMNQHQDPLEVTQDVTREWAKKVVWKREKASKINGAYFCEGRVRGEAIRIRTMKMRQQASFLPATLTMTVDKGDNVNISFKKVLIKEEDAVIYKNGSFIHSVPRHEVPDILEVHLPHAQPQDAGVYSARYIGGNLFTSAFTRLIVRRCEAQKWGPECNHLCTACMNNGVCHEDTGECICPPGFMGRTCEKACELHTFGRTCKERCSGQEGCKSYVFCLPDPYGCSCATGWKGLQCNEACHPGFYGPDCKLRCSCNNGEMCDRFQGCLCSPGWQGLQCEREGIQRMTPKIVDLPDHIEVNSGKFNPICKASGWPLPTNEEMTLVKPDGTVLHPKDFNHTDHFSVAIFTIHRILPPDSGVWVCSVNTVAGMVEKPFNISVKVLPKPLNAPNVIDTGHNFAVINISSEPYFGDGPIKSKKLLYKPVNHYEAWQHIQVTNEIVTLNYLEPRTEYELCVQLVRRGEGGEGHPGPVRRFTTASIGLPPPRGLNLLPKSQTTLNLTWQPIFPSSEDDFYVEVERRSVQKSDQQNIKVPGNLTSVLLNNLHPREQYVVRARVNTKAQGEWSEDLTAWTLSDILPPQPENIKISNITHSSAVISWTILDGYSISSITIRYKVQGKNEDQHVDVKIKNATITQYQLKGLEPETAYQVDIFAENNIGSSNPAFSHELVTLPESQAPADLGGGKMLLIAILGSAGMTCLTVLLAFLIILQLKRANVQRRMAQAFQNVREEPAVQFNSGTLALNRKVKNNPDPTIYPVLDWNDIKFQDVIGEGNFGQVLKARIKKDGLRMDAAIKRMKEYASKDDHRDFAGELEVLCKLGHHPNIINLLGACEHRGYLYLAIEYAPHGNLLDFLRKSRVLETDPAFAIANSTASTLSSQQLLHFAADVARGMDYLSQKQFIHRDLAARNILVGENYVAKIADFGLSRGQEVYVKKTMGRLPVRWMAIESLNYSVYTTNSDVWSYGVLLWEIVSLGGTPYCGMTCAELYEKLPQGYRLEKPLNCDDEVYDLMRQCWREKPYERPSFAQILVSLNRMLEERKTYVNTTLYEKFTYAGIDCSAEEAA
# T11 sequence (P50613 whole entry): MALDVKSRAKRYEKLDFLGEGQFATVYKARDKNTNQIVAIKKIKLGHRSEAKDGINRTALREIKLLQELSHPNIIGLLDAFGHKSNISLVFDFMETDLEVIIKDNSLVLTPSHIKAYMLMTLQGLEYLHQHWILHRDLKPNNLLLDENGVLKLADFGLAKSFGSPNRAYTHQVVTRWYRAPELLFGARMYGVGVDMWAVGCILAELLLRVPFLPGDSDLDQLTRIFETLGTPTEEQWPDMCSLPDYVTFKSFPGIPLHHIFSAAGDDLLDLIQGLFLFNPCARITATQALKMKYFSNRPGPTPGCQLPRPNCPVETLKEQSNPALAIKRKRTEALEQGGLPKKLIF
# T3 sequence (P34947 whole entry): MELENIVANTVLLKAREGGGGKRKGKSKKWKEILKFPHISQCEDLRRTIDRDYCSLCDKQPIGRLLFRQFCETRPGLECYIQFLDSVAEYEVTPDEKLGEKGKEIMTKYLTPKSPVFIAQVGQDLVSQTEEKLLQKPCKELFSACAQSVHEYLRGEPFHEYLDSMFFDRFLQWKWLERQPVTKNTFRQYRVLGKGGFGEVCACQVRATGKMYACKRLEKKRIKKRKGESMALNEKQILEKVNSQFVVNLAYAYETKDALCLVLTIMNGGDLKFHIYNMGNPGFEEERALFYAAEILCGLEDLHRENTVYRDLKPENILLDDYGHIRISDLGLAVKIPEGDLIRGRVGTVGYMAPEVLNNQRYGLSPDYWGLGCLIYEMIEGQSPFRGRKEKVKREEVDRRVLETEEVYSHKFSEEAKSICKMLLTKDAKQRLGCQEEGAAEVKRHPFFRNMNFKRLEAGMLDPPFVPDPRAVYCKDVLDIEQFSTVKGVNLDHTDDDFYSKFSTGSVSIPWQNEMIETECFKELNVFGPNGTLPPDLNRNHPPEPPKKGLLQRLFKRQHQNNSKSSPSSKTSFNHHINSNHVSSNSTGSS
smiles,measurement,setting,value
CNC(=O)c1ccc2c(c1)C(=O)c1ccc(Nc3ccc(F)c(NC(=O)C4CC4)c3)cc1CC2 [Compound 2015],remaining activity at 0.2 µM,"[1]; 0.2 µM 2015, read-out: JNK2 residual activity",61.1%
same,remaining activity at 1 µM,"[1]; 1 µM 2015, read-out: JNK2 residual activity",40.4%
same,remaining activity at 0.2 µM,"[1]; JNK2, 0.2 µM, read-out: residual activity",61.1%
same,remaining activity at 1 µM,"[1]; JNK2, 1 µM, read-out: residual activity",40.4%
same,effect on JNK2 (in words),"[1]; panel of 340 kinases, 1 µM and 0.2 µM",moderate influence
same,remaining activity at 0.2 µM,"[2]; 0.2 µM 2015, read-out: GSK3alpha residual activity",110%
same,remaining activity at 1 µM,"[2]; 1 µM 2015, read-out: GSK3alpha residual activity",82.6%
same,remaining activity at 0.2 µM,"[2]; GSK3alpha, 0.2 µM, read-out: residual activity",110%
same,remaining activity at 1 µM,"[2]; GSK3alpha, 1 µM, read-out: residual activity",82.6%
same,remaining activity at 0.2 µM,"[3]; 0.2 µM 2015, read-out: GRK5 residual activity",106%
same,remaining activity at 1 µM,"[3]; 1 µM 2015, read-out: GRK5 residual activity",114%
same,remaining activity at 0.2 µM,"[3]; GRK5, 0.2 µM, read-out: residual activity",106%
same,remaining activity at 1 µM,"[3]; GRK5, 1 µM, read-out: residual activity",114%
same,remaining activity at 0.2 µM,"[4]; 0.2 µM 2015, read-out: TIE2 residual activity",120%
same,remaining activity at 1 µM,"[4]; 1 µM 2015, read-out: TIE2 residual activity",90.4%
same,remaining activity at 0.2 µM,"[4]; TIE2, 0.2 µM, read-out: residual activity",120%
same,remaining activity at 1 µM,"[4]; TIE2, 1 µM, read-out: residual activity",90.5%
same,remaining activity at 0.2 µM,"[5]; 0.2 µM 2015, read-out: MELK residual activity",94.5%
same,remaining activity at 1 µM,"[5]; 1 µM 2015, read-out: MELK residual activity",91%
same,remaining activity at 0.2 µM,"[5]; MELK, 0.2 µM, read-out: residual activity",94.5%
same,remaining activity at 1 µM,"[5]; MELK, 1 µM, read-out: residual activity",91%
same,remaining activity at 0.2 µM,"[6]; 0.2 µM 2015, read-out: JNK3 residual activity",90.9%
same,remaining activity at 1 µM,"[6]; 1 µM 2015, read-out: JNK3 residual activity",100%
same,remaining activity at 0.2 µM,"[6]; JNK3, 0.2 µM, read-out: residual activity",90.9%
same,remaining activity at 1 µM,"[6]; JNK3, 1 µM, read-out: residual activity",100%
same,remaining activity at 0.2 µM,"[7]; 0.2 µM 2015, read-out: LRRK2 residual activity",98.2%
same,remaining activity at 1 µM,"[7]; 1 µM 2015, read-out: LRRK2 residual activity",93.8%
same,remaining activity at 0.2 µM,"[7]; LRRK2, 0.2 µM, read-out: residual activity",98.2%
same,remaining activity at 1 µM,"[7]; LRRK2, 1 µM, read-out: residual activity",93.8%
same,remaining activity at 0.2 µM,"[8]; 0.2 µM 2015, read-out: SLK residual activity",75%
same,remaining activity at 1 µM,"[8]; 1 µM 2015, read-out: SLK residual activity",75.3%
same,remaining activity at 0.2 µM,"[8]; SLK, 0.2 µM, read-out: residual activity",75%
same,remaining activity at 1 µM,"[8]; SLK, 1 µM, read-out: residual activity",75.3%
same,remaining activity at 0.2 µM,"[9]; 0.2 µM 2015, read-out: FGFR3 residual activity",109%
same,remaining activity at 1 µM,"[9]; 1 µM 2015, read-out: FGFR3 residual activity",97.1%
same,remaining activity at 0.2 µM,"[9]; FGFR3, 0.2 µM, read-out: residual activity",109%
same,remaining activity at 1 µM,"[9]; FGFR3, 1 µM, read-out: residual activity",97.1%
same,remaining activity at 0.2 µM,"[10]; 0.2 µM 2015, read-out: TTBK2 residual activity",115%
same,remaining activity at 1 µM,"[10]; 1 µM 2015, read-out: TTBK2 residual activity",118%
same,remaining activity at 0.2 µM,"[10]; TTBK2, 0.2 µM, read-out: residual activity",115%
same,remaining activity at 1 µM,"[10]; TTBK2, 1 µM, read-out: residual activity",118%
same,remaining activity at 0.2 µM,"[11]; 0.2 µM 2015, read-out: CDK7/CycH/MAT1 residual activity",94%
same,remaining activity at 1 µM,"[11]; 1 µM 2015, read-out: CDK7/CycH/MAT1 residual activity",91.1%
same,remaining activity at 0.2 µM,"[11]; CDK7/CycH/MAT1, 0.2 µM, read-out: residual activity",94%
same,remaining activity at 1 µM,"[11]; CDK7/CycH/MAT1, 1 µM, read-out: residual activity",91.2%
same,remaining activity at 0.2 µM,"[12]; 0.2 µM 2015, read-out: DYRK1A residual activity",86.7%
same,remaining activity at 1 µM,"[12]; 1 µM 2015, read-out: DYRK1A residual activity",90.3%
same,remaining activity at 0.2 µM,"[12]; DYRK1A, 0.2 µM, read-out: residual activity",86.8%
same,remaining activity at 1 µM,"[12]; DYRK1A, 1 µM, read-out: residual activity",90.3%
same,remaining activity at 0.2 µM,"[13]; 0.2 µM 2015, read-out: PKCtheta residual activity",108%
same,remaining activity at 1 µM,"[13]; 1 µM 2015, read-out: PKCtheta residual activity",89.1%
same,remaining activity at 0.2 µM,"[13]; PKCtheta, 0.2 µM, read-out: residual activity",108%
same,remaining activity at 1 µM,"[13]; PKCtheta, 1 µM, read-out: residual activity",89%
same,remaining activity at 0.2 µM,"[14]; 0.2 µM 2015, read-out: SNARK residual activity",97%
same,remaining activity at 1 µM,"[14]; 1 µM 2015, read-out: SNARK residual activity",92.5%
same,remaining activity at 0.2 µM,"[14]; SNARK, 0.2 µM, read-out: residual activity",97%
same,remaining activity at 1 µM,"[14]; SNARK, 1 µM, read-out: residual activity",92.5%
same,remaining activity at 0.2 µM,"[15]; 0.2 µM 2015, read-out: KIT residual activity",114%
same,remaining activity at 1 µM,"[15]; 1 µM 2015, read-out: KIT residual activity",109%
same,remaining activity at 0.2 µM,"[15]; KIT, 0.2 µM, read-out: residual activity",114%
same,remaining activity at 1 µM,"[15]; KIT, 1 µM, read-out: residual activity",109%
same,remaining activity at 0.2 µM,"[16]; 0.2 µM 2015, read-out: FGFR4 residual activity",107%
same,remaining activity at 1 µM,"[16]; 1 µM 2015, read-out: FGFR4 residual activity",95.9%
same,remaining activity at 0.2 µM,"[16]; FGFR4, 0.2 µM, read-out: residual activity",107%
same,remaining activity at 1 µM,"[16]; FGFR4, 1 µM, read-out: residual activity",95.9%
same,remaining activity at 0.2 µM,"[17]; 0.2 µM 2015, read-out: ERK5 residual activity",112%
same,remaining activity at 1 µM,"[17]; 1 µM 2015, read-out: ERK5 residual activity",99%
same,remaining activity at 0.2 µM,"[17]; ERK5, 0.2 µM, read-out: residual activity",112%
same,remaining activity at 1 µM,"[17]; ERK5, 1 µM, read-out: residual activity",99%
